Values of other authors as cited in patent publication US7622592B2, “Carbonylamino-benzimidazole derivatives as androgen receptor modulators” (Merck & Co., Inc., priority 2002, dated 2009).

Settings: after 7 years of treatment

Question: With NCCCC(O)(P(=O)(O)O)P(=O)(O)O [alendronate, 4-amino-1-hydroxybutylidene-1,1-bisphosphonic acid] as the molecule, how does the “increase in spinal BMD” value read?
Answer: 11
